The numbers were not newly measured in PMC11050823, “The Cyclic Imine Core Common to the Marine Macrocyclic Toxins Is Sufficient to Dictate Nicotinic Acetylcholine Receptor Antagonism” (Marine Drugs, 2024), which cites them from elsewhere.

The target of the series is nicotinic acetylcholine receptors. On the set-up: method as in PMID 35049904. The note with it: cited from earlier work.

As to `CN(C)C1CSSC1` [nereistoxin, N,N-dimethyl-1,2-dithiolan-4-amine], the “IC50 values as nicotinic antagonist” value was “sub-millimolar”.
